Positions of bridges follow the written chain, without caps; N, C: chain ends. Non-standard residues stand in square brackets, D forms with d. Residues, ends and D or L forms follow the SMILES beside them. d(hArg(Et2)) = CCN=C(NCC)NCCCC[C@@H](N)C(=O)O; hArg(Et2) = CCN=C(NCC)NCCCC[C@H](N)C(=O)O; dPhe(4-Cl) = N[C@H](Cc1ccc(Cl)cc1)C(=O)O; d2Nal = N[C@H](Cc1ccc2ccccc2c1)C(=O)O; hArg = N=C(N)NCCCC[C@H](N)C(=O)O; d3Pal = N[C@H](Cc1cccnc1)C(=O)O; Mpa = O=C(O)CCS
How the values were obtained:
Homo sapiens [1] = species on record: Homo sapiens; experiment: Liver toxicity in human assessed as induction of drug-induced liver injury by measuring severity class index
Homo sapiens [2] = species on record: Homo sapiens; experiment: Liver toxicity in human assessed as induction of drug-induced liver injury by measuring verified drug-induced liver injury concern status
Wherever DILI severity class is given: key of the grades not given here.

Row | Compound | DILI_severity_class (Homo sapiens [1]) | DILI_Concern (Homo sapiens [2])
1 | C[C@H]1COc2c(N3CCN(C)CC3)c(F)cc3c(=O)c(C(=O)O)cn1c23.C[C@H]1COc2c(N3CCN(C)CC3)c(F)cc3c(=O)c(C(=O)O)cn1c23.O [LEVOFLOXACIN] | 8 | Most-Dili-Concern
2 | CCCC[C@](C)(O)C/C=C/[C@H]1[C@H](O)CC(=O)[C@@H]1CCCCCCC(=O)OC | 3 | Ambiguous-Dili-Concern
3 | NC(=O)C1CCN(CCCN2c3ccccc3Sc3ccc(Cl)cc32)CC1 [PIPAMAZINE] | 8 | Most-Dili-Concern
4 | CN(C)CCCN1c2ccccc2CCc2ccc(Cl)cc21 [CLOMIPRAMINE] | 8 | Most-Dili-Concern
5 | CN1CCCCC1CCN1c2ccccc2Sc2ccc([S+](C)[O-])cc21 (stereo not drawn) [MESORIDAZINE] | 5 | Ambiguous-Dili-Concern
6 | CO/N=C(\C(=O)N[C@@H]1C(=O)N2C(C(=O)O)=CCS[C@H]12)c1csc(N)n1 [CEFTIZOXIME] | 4 | Ambiguous-Dili-Concern
7 | CN(C)CCc1c[nH]c2ccc(CS(=O)(=O)N3CCCC3)cc12 [ALMOTRIPTAN] | 0 | No-Dili-Concern
8 | CC(=O)[C@H]1CC[C@H]2[C@@H]3CCC4=CC(=O)CC[C@]4(C)[C@H]3CC[C@]12C [PROGESTERONE] | 2 | Less-Dili-Concern
9 | CC(=O)Nc1c(I)c(NC(C)=O)c(I)c(C(=O)O)c1I [DIATRIZOIC ACID] | 0 | No-Dili-Concern
10 | C[N+](C)(C)CCOC(=O)CCC(=O)OCC[N+](C)(C)C [SUXAMETHONIUM] | 0 | No-Dili-Concern
11 | CC(=O)O.CC(=O)O.CC/N=C(\NCC)NCCCC[C@H](NC(=O)[C@H](CC(C)C)NC(=O)[C@@H](CCCCN/C(=N/CC)NCC)NC(=O)[C@H](Cc1ccc(O)cc1)NC(=O)[C@H](CO)NC(=O)[C@@H](Cc1cccnc1)NC(=O)[C@@H](Cc1ccc(Cl)cc1)NC(=O)[C@@H](Cc1ccc2ccccc2c1)NC(C)=O)C(=O)N1CCC[C@H]1C(=O)N[C@H](C)C(N)=O [GANIRELIX ACETATE] (Ac-[d2Nal][dPhe(4-Cl)][d3Pal]SY[d(hArg(Et2))]L[hArg(Et2)]P[dA]-NH2) | 0 | No-Dili-Concern
12 | Clc1ccc2nsnc2c1NC1=NCCN1 [TIZANIDINE] | 8 | Most-Dili-Concern
13 | CN(C)CCc1c[nH]c2ccc(C[C@H]3COC(=O)N3)cc12 [ZOLMITRIPTAN] | 3 | Ambiguous-Dili-Concern
14 | CC1=NN(c2ccc(C)c(C)c2)C(=O)/C1=N\Nc1cccc(-c2cccc(C(=O)O)c2)c1O.NCCO.NCCO [ELTROMBOPAG OLAMINE] | 4 | Most-Dili-Concern
15 | CN1CCN(C(=O)O[C@H]2c3nccnc3C(=O)N2c2ccc(Cl)cn2)CC1 [ESZOPICLONE] | 3 | Ambiguous-Dili-Concern
16 | COC(=O)Nc1nc2ccc(C(=O)c3ccccc3)cc2[nH]1 [MEBENDAZOLE] | 3 | Less-Dili-Concern
17 | NCCc1c[nH]cn1.O=P(O)(O)O.O=P(O)(O)O [HISTAMINE PHOSPHATE] | 0 | No-Dili-Concern
18 | Cc1cc2c(cc1CC(=O)c1sccc1S(=O)(=O)Nc1onc(C)c1Cl)OCO2 [SITAXENTAN] | 8 | Most-Dili-Concern
19 | SIMETHICONE | 0 | No-Dili-Concern
20 | CC(=O)O[C@@]12CO[C@@H]1C[C@H](O)[C@@]1(C)C(=O)[C@H](O)C3=C(C)[C@@H](OC(=O)[C@H](O)[C@@H](NC(=O)OC(C)(C)C)c4ccccc4)C[C@@](O)([C@@H](OC(=O)c4ccccc4)[C@H]21)C3(C)C [DOCETAXEL ANHYDROUS] | 3 | Less-Dili-Concern

Row | Compound | DILI_severity_class (Homo sapiens [1]) | DILI_Concern (Homo sapiens [2])
21 | CC(C)Cc1ccc(CC(=O)O)cc1 [IBUFENAC] | 8 | Most-Dili-Concern
22 | NC12CC3CC(CC(C3)C1)C2 [AMANTADINE] | 3 | Ambiguous-Dili-Concern
23 | Cl.Cl.O=C(O)COCCN1CCN([C@H](c2ccccc2)c2ccc(Cl)cc2)CC1 [LEVOCETIRIZINE DIHYDROCHLORIDE] | 4 | Less-Dili-Concern
24 | N=C(N)NCCCC[C@@H]1NC(=O)CCSSC[C@@H](C(N)=O)NC(=O)[C@@H]2CCCN2C(=O)[C@H](Cc2c[nH]c3ccccc23)NC(=O)[C@H](CC(=O)O)NC(=O)CNC1=O [EPTIFIBATIDE] ([Mpa][hArg]GDWPC-NH2; disulfide 1-7) | 0 | No-Dili-Concern
25 | CC(C)Nc1ncccn1 [ISAXONINE] | 8 | Most-Dili-Concern
26 | O=C1CCCC(=O)C1C(=O)c1ccc(C(F)(F)F)cc1[N+](=O)[O-] [NITISINONE] | 7 | Ambiguous-Dili-Concern
27 | O=C(CCCN1CCC(O)(c2ccc(Cl)cc2)CC1)c1ccc(F)cc1 [HALOPERIDOL] | 5 | Less-Dili-Concern
28 | O=C1CCC(N2C(=O)c3ccccc3C2=O)C(=O)N1 (stereo not drawn) [THALIDOMIDE] | 4 | Less-Dili-Concern
29 | CC[C@]1(O)C[C@@H]2CN(CCc3c([nH]c4ccccc34)[C@@](C(=O)OC)(c3cc4c(cc3OC)N(C)[C@H]3[C@@](O)(C(=O)OC)[C@H](OC(C)=O)[C@]5(CC)C=CCN6CC[C@]43[C@@H]65)C2)C1 [VINBLASTINE] | 0 | No-Dili-Concern
30 | Nc1ccc(C(=O)O)c(O)c1 [AMINOSALICYLIC ACID] | 5 | Most-Dili-Concern
31 | Clc1ccc2c(c1)CCc1cccnc1C2=C1CCNCC1 [DESLORATADINE] | 3 | Less-Dili-Concern
32 | C[C@@H](O[C@H]1OCCN(Cc2nc(O)n(P(=O)(O)O)n2)[C@H]1c1ccc(F)cc1)c1cc(C(F)(F)F)cc(C(F)(F)F)c1 [FOSAPREPITANT] | 3 | Ambiguous-Dili-Concern
33 | CN(C)C(=N)N=C(N)N [METFORMIN] | 0 | Less-Dili-Concern
34 | CN(C/C=C/C#CC(C)(C)C)Cc1cccc2ccccc12 [TERBINAFINE] | 8 | Most-Dili-Concern
35 | C[C@H]1[C@H](NC(=O)/C(=N\OC(C)(C)C(=O)O)c2csc(N)n2)C(=O)N1S(=O)(=O)O [AZTREONAM] | 5 | Ambiguous-Dili-Concern
36 | C[C@]12C=CC(=O)C=C1CC[C@@H]1[C@@H]2C(=O)C[C@@]2(C)[C@H]1CC[C@]2(O)C(=O)CO [PREDNISONE] | 3 | Less-Dili-Concern
37 | CC(=O)CCCCn1c(=O)c2c(ncn2C)n(C)c1=O [PENTOXIFYLLINE] | 5 | Ambiguous-Dili-Concern
38 | COc1ccc(C(CN(C)C)C2(O)CCCCC2)cc1 (stereo not drawn) [VENLAFAXINE] | 7 | Less-Dili-Concern
39 | CC1CNc2c(cccc2S(=O)(=O)N[C@@H](CCCNC(=N)N)C(=O)N2CC[C@@H](C)C[C@@H]2C(=O)O)C1 (stereo partly drawn) [ARGATROBAN] | 0 | No-Dili-Concern

Source: ChEMBL document CHEMBL4028802, “DILIrank: the largest reference drug list ranked by the risk for developing drug-induced liver injury in humans” (Drug Discov Today, 2016)
